Series [1] deals with Staphylococcus aureus. Description: Antimicrobial activity against Staphylococcus aureus ATCC29213 assessed as bacterial growth inhibition incubated for 24 hrs by Muller Hinton broth based dilution assay. It counts as functional.
The next series concerns Escherichia coli. The experiment in a line: Antimicrobial activity against Escherichia coli ATCC25922 assessed as bacterial growth inhibition incubated for 24 hrs by Muller Hinton broth based dilution assay. The class given is functional.
Series [2] has as its system Staphylococcus aureus. The experiment in a line: Antimicrobial activity against methicillin-resistant Staphylococcus aureus NCTC10442 assessed as bacterial growth inhibition incubated for 24 hrs by Muller Hinton broth based dilution assay. The class given is functional.
For series [3], the system named is Candida albicans. The experiment in a line: Antimicrobial activity against Candida albicans ATCC10231 assessed as fungal growth inhibition incubated for 48 hrs by Sabouraud Dextrose broth based dilution assay. It counts as functional.
The subject of series [4] is Staphylococcus aureus. The experiment in a line: Antimicrobial activity against methicillin-resistant Staphylococcus aureus N315 assessed as bacterial growth inhibition incubated for 24 hrs by Muller Hinton broth based dilution assay. The class given is functional.
Series [5] can be described thus: Hemolytic activity in rabbit RBC incubated for 1 hr by absorbance based microplate reader assay. To be noted: rabbit red blood cells (erythrocytes). The class given is toxicity, cell-based, Oryctolagus cuniculus, Erythrocyte.
Series [6] deals with Candida albicans. Description: Antimicrobial activity against Candida albicans CMCC98001 assessed as fungal growth inhibition incubated for 48 hrs by Sabouraud Dextrose broth based dilution assay. The class given is functional.

The structures appear in SMILES notation. Converted amounts (≈) assume the structure as drawn.

The term MIC denotes the lowest concentration that inhibits growth of the organism. The term HC50 denotes the concentration that lyses half of the red blood cells. Read a low HC50 as stronger haemolysis.

Turning to `CC(C)=CCN1CCCc2cc(OCCCBr)ccc21`, the MIC was 25 µg/mL (≈ 73.9 µM) with Staphylococcus aureus [1]; > 50 µg/mL in the series on Escherichia coli; 25 µg/mL (≈ 73.9 µM) with Staphylococcus aureus [2]; 50 µg/mL (≈ 148 µM) in the series on Candida albicans [3]; 25 µg/mL (≈ 73.9 µM) in the series with Staphylococcus aureus [4]; 50 µg/mL (≈ 148 µM) in the series with Candida albicans [6]. Moreover, the HC50 at 1 h in series [5] is > 200 µg/mL.

Consider `CC(C)=CCN1CCCc2cc(OCCCCCCCCBr)ccc21`, for which the MIC in the series on Staphylococcus aureus [1] is > 50 µg/mL; with Escherichia coli it was > 50 µg/mL; in the series with Staphylococcus aureus [2], > 50 µg/mL; in the series with Candida albicans [3], 50 µg/mL (≈ 122 µM); with Staphylococcus aureus [4], > 50 µg/mL; in the series with Candida albicans [6], 50 µg/mL (≈ 122 µM). In addition, the HC50 at 1 h in series [5] was > 200 µg/mL.

In the case of `CCCCN1CCCc2cc(OCCCCBr)ccc21`, the MIC with Staphylococcus aureus [1] is 12.5 µg/mL (≈ 36.7 µM); in the series with Escherichia coli, 50 µg/mL (≈ 147 µM); with Staphylococcus aureus [2] it was 6.25 µg/mL (≈ 18.4 µM); in the series with Candida albicans [3] it was > 50 µg/mL; with Staphylococcus aureus [4] it was 6.25 µg/mL (≈ 18.4 µM); in the series on Candida albicans [6], 50 µg/mL (≈ 147 µM). Besides, the HC50 at 1 h in series [5] was > 200 µg/mL.

As to `CC(C)=CCC/C(C)=C/CN1CCCc2cc(OCCCCCCCCNC(=N)N)ccc21`, the MIC was determined as 3.12 µg/mL (≈ 6.87 µM) in the series with Staphylococcus aureus [1]; 25 µg/mL (≈ 55 µM) with Escherichia coli; 1.56 µg/mL (≈ 3.43 µM) in the series with Staphylococcus aureus [2]; 0.78 µg/mL (≈ 1.72 µM) in the series with Candida albicans [3]; 3.12 µg/mL (≈ 6.87 µM) in the series with Staphylococcus aureus [4]; 0.78 µg/mL (≈ 1.72 µM) with Candida albicans [6]. The concentration for 50% haemolysis (HC50) at 1 h in series [5] is > 200 µg/mL.

Take `FC(F)(F)CCCN1CCCc2cc(OCCCCBr)ccc21`: the MIC in the series on Staphylococcus aureus [1] was 25 µg/mL (≈ 63.4 µM); in the series on Escherichia coli, > 50 µg/mL; with Staphylococcus aureus [2], 12.5 µg/mL (≈ 31.7 µM); in the series with Candida albicans [3] it was > 50 µg/mL; in the series with Staphylococcus aureus [4], 25 µg/mL (≈ 63.4 µM); in the series with Candida albicans [6], > 50 µg/mL. In addition, the HC50 at 1 h in series [5] is > 200 µg/mL.

On to `CCCCCN1CCCc2cc(OCC(=O)OCC)ccc21`, for which the MIC with Staphylococcus aureus [1], in the series on Escherichia coli, in the series with Staphylococcus aureus [2], in the series on Candida albicans [3], in the series with Staphylococcus aureus [4] and with Candida albicans [6] was > 50 µg/mL in each case. Besides, the HC50 at 1 h in series [5] was > 200 µg/mL.

Turning to `CCCCCCCN1CCCc2cc(OCC(=O)N[C@@H](CCCNC(=N)N)C(=O)N[C@@H](CCCNC(=N)N)C(=O)OC)ccc21`, the minimal inhibitory concentration (MIC) in the series with Staphylococcus aureus [1] is 6.25 µg/mL (≈ 9.89 µM); in the series on Escherichia coli, 50 µg/mL (≈ 79.1 µM); in the series with Staphylococcus aureus [2], 3.12 µg/mL (≈ 4.95 µM); in the series on Candida albicans [3], > 50 µg/mL; in the series with Staphylococcus aureus [4], 3.12 µg/mL (≈ 4.95 µM); in the series on Candida albicans [6], 50 µg/mL (≈ 79.1 µM). For the same compound, the HC50 at 1 h in series [5] was > 200 µg/mL.

On to `CC(C)=CCN1CCCc2cc(OCCCCBr)ccc21`, for which the MIC in the series with Staphylococcus aureus [1] is 25 µg/mL (≈ 71 µM); in the series with Escherichia coli it was > 50 µg/mL; in the series on Staphylococcus aureus [2], 25 µg/mL (≈ 71 µM); in the series with Candida albicans [3], > 50 µg/mL; in the series on Staphylococcus aureus [4], 12.5 µg/mL (≈ 35.5 µM); in the series with Candida albicans [6], > 50 µg/mL. In series [5], the HC50 at 1 h was > 200 µg/mL.

`CC(C)=CCN1CCCc2cc(OCCCCN3CCCCC3)ccc21`: the MIC with Staphylococcus aureus [1], in the series with Escherichia coli, with Staphylococcus aureus [2], in the series with Candida albicans [3], in the series on Staphylococcus aureus [4] and with Candida albicans [6] was > 50 µg/mL each time. Moreover, in series [5], the HC50 at 1 h is > 200 µg/mL.

As for `CCCCCCCN1CCCc2cc(O)ccc21`, the MIC is 12.5 µg/mL (≈ 50.5 µM) in the series with Staphylococcus aureus [1]; > 50 µg/mL in the series on Escherichia coli; 12.5 µg/mL (≈ 50.5 µM) in the series with Staphylococcus aureus [2]; > 50 µg/mL with Candida albicans [3]; 12.5 µg/mL (≈ 50.5 µM) with Staphylococcus aureus [4]; > 50 µg/mL in the series on Candida albicans [6]. The 50% haemolytic concentration (HC50) at 1 h in series [5] is > 200 µg/mL.

Consider `CC(C)=CCC/C(C)=C/CN1CCCc2cc(OCCCCBr)ccc21`, for which the MIC is 25 µg/mL (≈ 59.5 µM) in the series on Staphylococcus aureus [1]; > 50 µg/mL in the series on Escherichia coli; 25 µg/mL (≈ 59.5 µM) in the series with Staphylococcus aureus [2]; > 50 µg/mL in the series with Candida albicans [3]; 25 µg/mL (≈ 59.5 µM) in the series on Staphylococcus aureus [4]; 50 µg/mL (≈ 119 µM) with Candida albicans [6]. Moreover, the HC50 at 1 h in series [5] was > 200 µg/mL.

`CCCN1CCCc2cc(O)ccc21`: the MIC in the series with Staphylococcus aureus [1], with Escherichia coli, in the series with Staphylococcus aureus [2], in the series with Candida albicans [3], in the series on Staphylococcus aureus [4] and with Candida albicans [6] was > 50 µg/mL in each case. Also, in series [5], the HC50 at 1 h was > 200 µg/mL.
